Assay results taken from patent US20230365577A1, “Photodynamic Therapy and Diagnosis” (RMW CHO Group Limited, priority 2020, published 2023).
Counter-ions that a name gives are not always drawn. Like-named read-outs stand apart in the source and are kept apart here.

Columns and labels:
[1] = Singlet oxygen (1O2) production rate; format: physicochemical
From the text: The production of singlet oxygen (^1O2), cellular phototoxicity and light-independent cytotoxicity (“dark toxicity”) of a number of phyllochlorin analogues were compared against chlorin e4 disodium and Talaporfin sodium (mono-L-aspartyl chlorin e6), the active ingredient of Laserphyrin™.

[2] = system: SKOV3 ovarian cancer cells; assay: Phototoxicity in SKOV3 cells (652 nm laser, AlamarBlue viability); format: cell-based, Human
Procedure: (§1) Human ovarian cancer cell line SKOV3 (ATCC #HTB-77) was maintained in Dulbecco's Modified Eagle Medium/Nutrient Mixture F-12 (DMEM/F-12), supplemented with 10% v/v Fetal Bovine Serum, 100 U/mL penicillin and 100 µg/mL streptomycin. Monolayer cultures were grown in a humidified incubator at 37° C. with 5% CO2.
(§2) For in vitro experiments, photosensitizers (stock solution 5.5 mM in 100% DMSO) were diluted in cell culture media (Dulbecco's Modified Eagle Medium/Nutrient Mixture F-12) supplemented with 10% v/v Fetal Bovine Serum, 100 U/mL penicillin, 100 µg/mL streptomycin and 10% w/v Kollidon-12. Once cells had reached ˜80% confluence, spent media was replaced with media containing photosensitizer and cells were incubated for the desired period of time to allow photosensitizer uptake.
SKOV3 cells were seeded in 96-well black wall plates (Greiner #655090) at a cell density of 5000 cells in 100 μl culture medium per well. On reaching ˜60% confluence, so media was aspirated and replaced with fresh media containing the relevant phyllochlorin analogue from 0-100 μM in DMSO. Cells were incubated for a further 24 hours, allowing uptake of phyllochlorin analogues.
To test for phototoxicity, cells incubated with phyllochlorin analogues (0-10 μM in DMSO) had culture media replaced after 24 hours (as above) and were then exposed to a 652 nm laser (Invion) with laser density at 50 mW/cm^2 for 5 mins (total 15 J/cm^2). Following activation, cells were cultured for a further 24 hours. Media was then replaced with fresh media containing AlamarBlue, and % viable cells remaining assessed as above. Controls included cells treated with phyllochlorin analogues but not activated by laser light; cells without phyllochlorin analogue treatment but with laser light; and untreated controls. All measurements were made in quadruplicate.
(§3) For comparative purposes, phyllochlorin analogues were tested and compared against both chlorin e4 disodium and Talaporfin sodium, a clinically approved photosensitizer used in the photodynamic treatment of lung cancers. Phototoxicity IC90 values and dark toxicity IC10 values were calculated using a log[inhibitor]-vs normalized response dose curve with variable slope, using the formula Y=100/(1+(IC90/X)^HillSlope (phototoxicity IC90) or Y=100/(1+(IC10/X)^HillSlope (dark toxicity IC10).

[3] = system: SKOV3 ovarian cancer cells; assay: Inherent cytotoxicity (dark toxicity) in SKOV3 cells (AlamarBlue viability); format: cell-based, Human
Procedure: as §1, §2
SKOV3 cells were seeded in 96-well black wall plates (Greiner #655090) at a cell density of 5000 cells in 100 μl culture medium per well. On reaching ˜60% confluence, media was aspirated and replaced with fresh media containing the relevant phyllochlorin analogue from 0-100 μM in DMSO. Cells were incubated for a further 24 hours, allowing uptake of phyllochlorin analogues.
To test for inherent cytotoxicity (i.e. “dark toxicity”) of the phyllochlorin analogue the culture media was replaced after 24 hours with fresh media containing 10% (v/v) AlamarBlue Cell Viability Reagent (ThermoFisher) and cells incubated at 37° C. for 6 hours. Untreated cells were used as a control. Fluorescence (Ex 555 nm/Em 596 nm) was measured using a Cytation 3 Multimode Plate Reader (Biotek), and cytotoxicity assessed according to the % viable cells remaining. All measurements were made in quadruplicate.
as §3

[4] = SKOV3, 24 h uptake, 652 nm laser 50 mW/cm2 5 mins (15 J/cm2), viability 24 h later, read-out: Cellular Toxicity: Phototoxicity IC90
[5] = Homo sapiens, SK-OV-3, light or radiation study, SKOV3, 24 h uptake, 652 nm laser 50 mW/cm2 5 mins (15 J/cm2), viability 24 h later, read-out: Cellular Toxicity: Phototoxicity IC90
[6] = Homo sapiens, SK-OV-3, light or radiation study, SKOV3, read-out: Phototoxicity apparent IC90
[7] = Homo sapiens, SK-OV-3, light or radiation study, read-out: Cellular Toxicity: Phototoxicity IC90, SKOV3, 24 h uptake, 652 nm laser 50 mW/cm2 5 mins (15 J/cm2), viability 24 h later

Compound | Singlet Oxygen Production (slope) 1O2 [1] | Cellular Toxicity: Dark toxicity IC10 ([3]; human, 24 h) [µM] | IC90 [2, 5] [µM] | other results
3-((7S,8S)-18-ethyl-2,5,8,12,17-pentamethyl-13-vinyl-7H,8H-porphyrin-7-yl)-N-(2-(2-hydroxyethoxy)ethyl)-N-methylpropanamide zinc complex [Compound 21] | 423.4 |  |  | Fold decrease in the rate of ROS production on Zn2+ complexation ([1]; compound 21 versus compound 18): ~2.5 fold; IC90 [2, 4]: 4.77 µM; Cellular Toxicity: Dark toxicity IC10 [3]: 8.17 µM
3-((7S,8S)-18-ethyl-2,5,8,12,17-pentamethyl-13-vinyl-7H,8H-porphyrin-7-yl)-N-methyl-N-(3-(((2S,3R,4S,5S,6R)-3,4,5-trihydroxy-6-(hydroxymethyl)tetrahydro-2H-pyran-2-yl)thio)propyl)propanamide zinc complex [Compound 19] | 404.7 |  |  | IC90 [2, 4]: 12.8 µM; Cellular Toxicity: Dark toxicity IC10 [3]: 20.20 µM
C=Cc1c(C)c2cc3nc(c(C)c4cc(C)c(cc5nc(cc1[nH]2)C(C)=C5CC)[nH]4)[C@@H](CCC(=O)O)[C@@H]3C [Compound 1a, phyllochlorin potassium salt] |  | 12.41 |  | Singlet Oxygen Production (slope) 1O2 ([1]; potassium salt): 760.9; IC90 ([2]; SKOV3, 24 h uptake, 652 nm laser 50 mW/cm2 5 mins (15 J/cm2), viability 24 h later, potassium salt, read-out: Cellular Toxicity: Phototoxicity IC90): 0.47 µM
C=Cc1c(C)c2cc3nc(c(C)c4cc(C)c(cc5nc(cc1[nH]2)C(C)=C5CC)[nH]4)[C@@H](CCC(=O)O)[C@@H]3C [Compound 1b, phyllochlorin lithium salt] |  | 22.13 |  | Singlet Oxygen Production (slope) 1O2 ([1]; lithium salt): 841.7; IC90 ([2]; SKOV3, 24 h uptake, 652 nm laser 50 mW/cm2 5 mins (15 J/cm2), viability 24 h later, lithium salt, read-out: Cellular Toxicity: Phototoxicity IC90): 1.4 µM
C=Cc1c(C)c2cc3nc(c(C)c4cc(C)c(cc5nc(cc1[nH]2)C(C)=C5CC)[nH]4)[C@@H](CCC(=O)O)[C@@H]3C [Compound 1d, phyllochlorin arginine salt] | 833.9 | 18.15 |  | IC90 ([2]; read-out: Cellular Toxicity: Phototoxicity IC90, SKOV3, 24 h uptake, 652 nm laser 50 mW/cm2 5 mins (15 J/cm2), viability 24 h later): 1.42 µM
C=Cc1c(C)c2cc3nc(c(C)c4cc(C)c(cc5nc(cc1[nH]2)C(C)=C5CC)[nH]4)[C@@H](CCC(=O)O)[C@@H]3C [Compound 1e, phyllochlorin meglumine salt] | 938.8 | 20.73 |  | IC90 [2, 4]: 1.79 µM
C=Cc1c(C)c2cc3nc(c(C)c4cc(C)c(cc5nc(cc1[nH]2)C(C)=C5CC)[nH]4)[C@@H](CCC(=O)N(C)CCOCCOCCO)[C@@H]3C [Compound 4, 3-((7S,8S)-18-ethyl-2,5,8,12,17-pentamethyl-13-vinyl-7H,8H-porphyrin-7-yl)-N-(2-(2-(2-hydroxyethoxy)ethoxy)ethyl)-N-methylpropanamide] | 2191.0 | 16.41 | 0.12 | 
C=Cc1c(C)c2cc3nc(c(C)c4cc(C)c(cc5nc(cc1[nH]2)C(C)=C5CC)[nH]4)[C@@H](CCC(=O)N(C)CCCO)[C@@H]3C [Compound 5, 3-((7S,8S)-18-ethyl-2,5,8,12,17-pentamethyl-13-vinyl-7H,8H-porphyrin-7-yl)-N-(3-hydroxypropyl)-N-methylpropanamide] | 2385.0 | 20.82 | 0.05 | Rate of ROS production relative to chlorin e4 disodium and Talaporfin sodium [1]: more than double; IC90 [2, 6]: < 0.1 µM
C=Cc1c(C)c2cc3nc(c(C)c4cc(C)c(cc5nc(cc1[nH]2)C(C)=C5CC)[nH]4)[C@@H](CCC(=O)N(C)CCCCCO)[C@@H]3C [Compound 7, 3-((7S,8S)-18-ethyl-2,5,8,12,17-pentamethyl-13-vinyl-7H,8H-porphyrin-7-yl)-N-(5-hydroxypentyl)-N-methylpropanamide] | 1494.0 | 14.27 | 0.05 | IC90 [2, 6]: < 0.1 µM
C=Cc1c(C)c2cc3nc(c(C)c4cc(C)c(cc5nc(cc1[nH]2)C(C)=C5CC)[nH]4)[C@@H](CCC(=O)N(C)CCCCCS[C@@H]1O[C@H](CO)[C@@H](O)[C@H](O)[C@H]1O)[C@@H]3C [Compound 8, 3-((7S,8S)-18-ethyl-2,5,8,12,17-pentamethyl-13-vinyl-7H,8H-porphyrin-7-yl)-N-methyl-N-(5-(((2S,3R,4S,5S,6R)-3,4,5-trihydroxy-6-(hydroxymethyl)tetrahydro-2H-pyran-2-yl)thio)pentyl)propanamide] | 1314.0 | 12.55 | 0.06 | IC90 [2, 6]: < 0.1 µM; Fold increase in cellular phototoxicity compared to compound 2 ([2]; SKOV3, IC90): approximately 4 fold
C=Cc1c(C)c2cc3nc(c(C)c4cc(C)c(cc5nc(cc1[nH]2)C(C)=C5CC)[nH]4)[C@@H](CCC(=O)N(C)CCC[S+]([O-])[C@@H]1O[C@H](CO)[C@@H](O)[C@H](O)[C@H]1O)[C@@H]3C (stereo partly drawn) [Compound 9, 3-((7S,8S)-18-ethyl-2,5,8,12,17-pentamethyl-13-vinyl-7H,8H-porphyrin-7-yl)-N-methyl-N-(3-(((2S,3R,4S,5S,6R)-3,4,5-trihydroxy-6-(hydroxymethyl)tetrahydro-2H-pyran-2-yl)thio)propyl)propanamide sulphoxide] | 1396.0 | 70.24 |  | IC90 [2, 7]: 0.19 µM
C=Cc1c(C)c2cc3nc(c(C)c4cc(C)c(cc5nc(cc1[nH]2)C(C)=C5CC)[nH]4)[C@@H](CCC(=O)N(C)CCO)[C@@H]3C [Compound 10, 3-((7S,8S)-18-ethyl-2,5,8,12,17-pentamethyl-13-vinyl-7H,8H-porphyrin-7-yl)-N-(2-hydroxyethyl)-N-methylpropanamide] | 1691.0 | 14.94 | 0.16 | 
C=Cc1c(C)c2cc3nc(c(C)c4cc(C)c(cc5nc(cc1[nH]2)C(C)=C5CC)[nH]4)[C@@H](CCC(=O)N(C)CCCS[C@@H]1O[C@H](COC(C)=O)[C@@H](OC(C)=O)[C@H](OC(C)=O)[C@H]1OC(C)=O)[C@@H]3C [Compound 11, (2R,3R,4S,5R,6S)-2-(acetoxymethyl)-6-((3-(3-((7S,8S)-18-ethyl-2,5,8,12,17-pentamethyl-13-vinyl-7H,8H-porphyrin-7-yl)-N-methylpropanamido)propyl)thio)tetrahydro-2H-pyran-3,4,5-triyl triacetate] | 1434.0 | 29.00 |  | IC90 [2, 7]: 0.5 µM
